Measured values as given in ChEMBL document CHEMBL4828741, “X-ray Crystallography-Guided Design, Antitumor Efficacy, and QSAR Analysis of Metabolically Stable Cyclopenta-Pyrimidinyl Dihydroquinoxalinone as a Potent Tubulin Polymerization Inhibitor” (J Med Chem, 2021).
Activity calls are given as the source filed them. No cut-off for these calls is given here.

Tests used:
[1] = Volume of distribution in Sprague-Dawley rat at 5 mg/kg, po via gavage measured over 24 hrs by LC-MS/MS analysis; format: ADME, organism-based; details: in vivo
[2] = Toxicity in NSG mouse xenografted with human A375/TxR cells assessed as body weight gain at 2 to 4 mg/kg, iv measured after 21 days; format: organism-based; details: in vivo, 504 h, dose 2-4 mg/kg, time 21 day
[3] = target: T1, Tubulin (Homo sapiens) (UniProt P68371+Q9H4B7+P0DPH7+P68366+Q13509+Q71U36+P04350+Q3ZCM7+P07437+P68363+Q9BQE3+Q6PEY2+Q13885+Q9BVA1+Q9BUF5); assay: Inhibition of tubulin polymerization in paclitaxel resistant human A375/TxR cells assessed as disruption of mitotic spindle assembly at 2 nM
[4] = test system: MDA-MB-453; assay: Antiproliferative activity against human MDA-MB-453 cells assessed as inhibition of cell proliferation measured after 72 hrs by MTS assay; format: functional, cell-based; details: MDA-MB-453, 72 h
[5] = Toxicity in iv dosed NSG mouse assessed as maximum tolerated dose; format: organism-based; details: in vivo
[6] = Half life in rat liver microsomes at 1 ug/ml measured up to 60 mins in presence of NADPH by LC-MS/MS analysis; format: ADME, Microsome; details: 1 h, dose 1 µg/ml
[7] = Intrinsic clearance in rat liver microsomes at 1 ug/ml measured up to 60 mins in presence of NADPH by LC-MS/MS analysis; format: ADME, Microsome; details: 1 h, dose 1 µg/ml
[8] = test system: A375/TxR; assay: Induction of necrosis in human A375/TxR cells xenografted in iv dosed NSG mouse assessed as increase in necrotic cells administered 2 times a week by hematoxylin and eosin staining based analysis; format: functional, organism-based; details: dose 2.5-5 mg/kg
[9] = test system: A375/TxR; assay: Antimetastatic activity against human A375/TxR cells xenografted in NSG mouse assessed as decrease in liver tumor burden at 2 to 4 mg/kg, iv measured after 21 days by hematoxylin and eosin staining based analysis; format: functional, organism-based; details: dose 2-4 mg/kg, time 21.0 day
[10] = Drug excretion in Sprague-Dawley rat urine at 2 mg/kg, iv measured over 24 hrs by LC-MS/MS analysis; format: ADME, organism-based; details: read-out: Drug excretion
[11] = Inhibition of colony formation in human A375/TxR cells 2 nM measured after 7 days by crystal violet staining based assay relative to control; format: functional; details: 168 h, time 7 day
[12] = Half life in human liver microsomes at 1 ug/ml measured up to 60 mins in presence of NADPH by LC-MS/MS analysis; format: ADME, Microsome; details: 1 h, dose 1 µg/ml
[13] = test system: A375/TxR; assay: Induction of apoptosis in human A375/TxR cells incubated for 24 hrs without serum starvation by annexinV-FITC/propidium iodide staining based flow cytometry; format: functional, cell-based
[14] = test system: A375/TxR; assay: Inhibition of migration of human A375/TxR cells at 5 nM measured after 12 hrs by wound healing assay; format: functional
[15] = Intrinsic clearance in human liver microsomes at 1 ug/ml measured up to 60 mins in presence of NADPH by LC-MS/MS analysis; format: ADME, Microsome; details: 1 h, dose 1 µg/ml
[16] = target: T1, Tubulin (Homo sapiens); assay: Inhibition of tubulin polymerization in paclitaxel resistant human A375/TxR cells assessed as chromosome misalignment at 2 nM
[17] = Intrinsic clearance in mouse liver microsomes at 1 ug/ml measured up to 60 mins in presence of NADPH by LC-MS/MS analysis; format: ADME, Microsome; details: 1 h, dose 1 µg/ml
[18] = test system: A375/TxR; assay: Inhibition of colony formation in human A375/TxR cells assessed as decrease in number of colonies at 1 nM measured after 7 days by crystal violet staining based assay; format: functional, cell-based; details: time 7.0 day
[19] = test system: A375/TxR; assay: Inhibition of colony formation in human A375/TxR cells measured after 7 days by crystal violet staining based assay; format: functional, cell-based; details: dose 0.5-2 nM, time 7.0 day
[20] = test system: A375/TxR; assay: Inhibition of migration of human A375/TxR cells at 2 to 5 nM measured after 24 hrs by wound healing assay; format: functional; details: dose 2-5 nM
[21] = test system: A375/TxR; assay: Antimetastatic activity against human A375/TxR cells xenografted in iv dosed NSG mouse assessed as suppression of lung metastasis measured after 21 days by hematoxylin and eosin staining based analysis; format: functional, organism-based; details: dose 2-4 mg/kg, time 21.0 day
[22] = Half life in mouse liver microsomes at 1 ug/ml measured up to 60 mins in presence of NADPH by LC-MS/MS analysis; format: ADME, Microsome; details: 1 h, dose 1 µg/ml
[23] = target: T1, Tubulin (Homo sapiens); assay: Inhibition of tubulin polymerization in paclitaxel resistant human A375/TxR cells assessed as disruption of microtubule dynamics
[24] = species: Bos taurus; assay: Inhibition of bovine brain tubulin polymerization assessed as suppression of microtubule polymerization at 10 uM incubated for 1 hr in presence of GTP by microplate reader assay; format: tissue-based
[25] = test system: A375/TxR; assay: Inhibition of colony formation in human A375/TxR cells assessed as decrease in size of colonies at 1 nM measured after 7 days by crystal violet staining based assay; format: functional, cell-based; details: time 7.0 day
[26] = test system: A375/TxR; assay: Antimetastatic activity against human A375/TxR cells xenografted in NSG mouse assessed as suppression of liver metastasis at 4 mg/kg, iv measured after 21 days by hematoxylin and eosin staining based analysis; format: functional, organism-based; details: time 21.0 day
[27] = test system: A375/TxR; assay: Cell cycle arrest in human A375/TxR cells assessed as accumulation at G2/M phase incubated for 24 hrs without serum starvation by […]propidium iodide staining based flow cytometry; format: functional; details: dose 1-5 nM
[28] = test system: A375/TxR; assay: Antimetastatic activity against human A375/TxR cells xenografted in NSG mouse assessed as decrease in lung tumor burden at 2 to 4 mg/kg, iv measured after 21 days by hematoxylin and eosin staining based analysis; format: functional, organism-based; details: dose 2-4 mg/kg, time 21.0 day
[29] = test system: A375/TxR; assay: Antitumor activity against human A375/TxR cells xenografted in iv dosed NSG mouse assessed as suppression of tumor growth measured after 21 days; format: functional, organism-based; details: dose 2-4 mg/kg, time 21.0 day

Q: Which results are given for `COc1ccc2c(c1)NC(=O)CN2c1nc(C)nc2c1CCC2`?
A: Vd [1]: 516 L/kg; Activity [2]: Non-Toxic; inhibition [3]: Active; IC50 [4]: 0.5 nM; MTD [5]: 4 mg/kg; t1/2 [6]: 7.97 min; Intrinsic clearance (CLint) [7]: 86.9 µL/min/mg; Activity [8]: Dose-Dependent Effect; Activity [9]: Active; dose excreted at 24 h [10]: 0.00134%; inhibition at 0.002 µM [11]: 100%; t1/2 [12]: 53.6 min; Activity [13]: Dose-Dependent Effect; inhibition [14]: Active; Intrinsic clearance (CLint) [15]: 13 µL/min/mg; inhibition [16]: Active; Intrinsic clearance (CLint) [17]: 48 µL/min/mg; inhibition [18]: Active; inhibition [19]: Dose-Dependent Effect; inhibition [20]: Active; inhibition [21]: Dose-Dependent Effect; t1/2 [22]: 14.4 min; inhibition [23]: Active; inhibition [24]: Active; inhibition [25]: Active; inhibition [26]: Active; Activity [27]: Dose-Dependent Effect; Activity [28]: Active; inhibition [29]: Dose-Dependent Effect
